{"source": "paper PMC3345088", "about": "(Journal of Immunology (Baltimore, Md. : 1950), 2012)", "key": {"[1]": {"system": "CD4+ T cells from LTBI donors", "assay": "HLA locus restriction, antibody inhibition IFNγ ELISPOT", "assay_type": "cell-based, human", "details": "antibodies 10 µg/ml against HLA-DR, DP or DQ"}, "[2]": {"target": "DRB1*01:01 (Homo sapiens, UniProt P01903+P01911, A100R/D57E/F55L/F60I/F76Y/I96L/L162R/M171V/P40L/Q125E/R42F/V115G/Y59C)", "assay": "MHC-peptide binding assay"}, "[3]": {"system": "HLA class II alleles", "design": "species or system human"}}, "note": "Like-named read-outs stand apart in the source and are kept apart here.", "data": [{"substance": "CFP10 40–54: 15-mer peptide epitope, residues 40–54 of CFP10 (Rv3874) (QGQWRGAAGTAAQAA; UniProt P9WNK5 40-54, looked up, fragment)", "values": [{"measurement": "Restricting HLA locus", "setting": "[1]; donor TU7", "result": "DP, DQ, DR"}, {"measurement": "Binding to DRB1*01:01", "setting": "[2]", "result": "high affinity"}, {"measurement": "Donors that responded expressing DRB1*01:01", "setting": "[3]", "result": "3 of 4"}]}, {"substance": "CFP10 52–66: 15-mer peptide epitope, residues 52–66 of CFP10 (Rv3874)", "values": [{"measurement": "No. donors expressing allele resp.", "setting": "[3]", "result": "4 of 5"}, {"measurement": "No. donors expressing allele resp.", "setting": "[3]; listed as CFP10_52–66", "result": "4 out of 5"}]}, {"substance": "CFP10 72–86: 15-mer peptide epitope, residues 72–86 of CFP10 (Rv3874) (ISTNIRQAGVQYSRA; UniProt P9WNK5 72-86, looked up, fragment)", "values": [{"measurement": "Restricting HLA locus", "setting": "[1]; donor TU2", "result": "DP, DQ, DR"}, {"measurement": "Restricting HLA locus", "setting": "[1]; donor TU11", "result": "DP, DQ, DR"}]}, {"substance": "ESAT-6 3–17: 15-mer peptide epitope, residues 3–17 of ESAT-6 (Rv3875) (EQQWNFAGIEAAASA; UniProt P9WNK7 3-17, looked up, fragment)", "values": [{"measurement": "Restricting HLA locus", "setting": "[1]; donor TU25", "result": "DQ, DR"}]}, {"substance": "ESAT-6 73–87: 15-mer peptide epitope, residues 73–87 of ESAT-6 (Rv3875) (ARTISEAGQAMASTE; UniProt P9WNK7 73-87, looked up, fragment)", "values": [{"measurement": "No. donors expressing allele resp.", "setting": "[3]", "result": "3 of 5"}, {"measurement": "No. donors expressing allele resp.", "setting": "[3]; listed as ESAT-6_72–87", "result": "3 out of 5"}]}, {"substance": "Rv2031c 106–120: 15-mer peptide epitope, residues 106–120 of Rv2031c (hspX) (VGADEDDIKATYDKG; UniProt P9WMK1 106-120, looked up, fragment)", "values": [{"measurement": "Restricting HLA locus", "setting": "[1]; donor TU2", "result": "DP, DR"}, {"measurement": "Restricting HLA locus", "setting": "[1]; donor TU8", "result": "DP, DQ, DR"}, {"measurement": "Restricting HLA locus", "setting": "[1]; donor TU29", "result": "DP, DR"}]}]}
